From PubChem BioAssay (NCI)
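Cells were grown in 96-well plates and exposed to each compound for 48 hours at five concentrations; endpoints were interpolated linearly between bracketing concentrations, or set to the highest concentration if not reached. TGI marks complete inhibition of growth.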

Columns and labels:
Experiment in all cases: NCI anticancer screen, dose series, 48 h
CCRF-CEM leukemia = tested on: CCRF-CEM leukemia
DMS 114 small cell lung = tested on: DMS 114 small cell lung
DMS 273 small cell lung = tested on: DMS 273 small cell lung
HCT-15 colon = tested on: HCT-15 colon
IGROV1 ovarian = tested on: IGROV1 ovarian
LXFL 529 NSCLC = tested on: LXFL 529 NSCLC
MDA-MB-435 = tested on: MDA-MB-435
RXF 393 renal = tested on: RXF 393 renal
SF-539 CNS = tested on: SF-539 CNS
SK-MEL-5 melanoma = tested on: SK-MEL-5 melanoma
SW-620 colon = tested on: SW-620 colon

For `CC(=O)OC1=CC2(OC(C)=O)CC(C)(C)C1C1C(=O)C=CC(=O)C12` (configuration not stated), the TGI (CCRF-CEM leukemia) was greater than 100 µM, the TGI (DMS 114 small cell lung) was greater than 100 µM and the TGI (DMS 273 small cell lung) was greater than 100 µM. The TGI (HCT-15 colon) was greater than 100 µM, the TGI (IGROV1 ovarian) was greater than 100 µM and the TGI (LXFL 529 NSCLC) was greater than 100 µM. For the same compound, the TGI (MDA-MB-435) was 53.4 µM, the TGI (RXF 393 renal) was greater than 100 µM and the TGI (SF-539 CNS) was greater than 71 µM. For the same compound, the TGI (SK-MEL-5 melanoma) was greater than 100 µM and the TGI (SW-620 colon) was greater than 100 µM.

Compound `CC1OC(CC(=O)O)CC2=C1C(=O)c1c(O)cccc1C2=O` (configuration not stated) has a TGI (CCRF-CEM leukemia) of 0.0957 µM, a TGI (DMS 114 small cell lung) of 0.288 µM and a TGI (DMS 273 small cell lung) of 0.594 µM. It also gave a TGI (HCT-15 colon) of 0.183 µM, a TGI (IGROV1 ovarian) of 0.721 µM and a TGI (LXFL 529 NSCLC) of 0.218 µM. For the same compound, the TGI (MDA-MB-435) was 0.283 µM, the TGI (RXF 393 renal) was 0.103 µM and the TGI (SF-539 CNS) was 2.43 µM. It also gave a TGI (SK-MEL-5 melanoma) of 1.15 µM and a TGI (SW-620 colon) of 0.207 µM.

In the case of `O=C1CCCCC12CCC/C2=N\O` (configuration not stated), the TGI (CCRF-CEM leukemia) is reported as greater than 100 µM, the TGI (DMS 114 small cell lung) is reported as greater than 100 µM and the TGI (DMS 273 small cell lung) is reported as greater than 100 µM. For the same compound, the TGI (HCT-15 colon) was greater than 100 µM, the TGI (IGROV1 ovarian) was greater than 100 µM and the TGI (LXFL 529 NSCLC) was greater than 100 µM. For the same compound, the TGI (RXF 393 renal) was greater than 100 µM, the TGI (SF-539 CNS) was greater than 100 µM and the TGI (SK-MEL-5 melanoma) was greater than 100 µM. The TGI (SW-620 colon) was greater than 100 µM.
